These results are taken from patent US12508216B2, “Process for the preparation of antimalassezia powder” (PRAJ INDUSTRIES LIMITED, priority 2022, dated 2025).

Converted amounts (≈) assume the structure as drawn. “Also recorded” adds a separate entry of the source. Read-outs that look alike come from different tables or passages of the source. A value given as a limit tells only on which side of the number the result lay.

Experiment [1] has as its system M. furfur. The experiment is described as follows: MIC and MFC by broth microdilution technique. Particulars: for MFC: first figure of MFC/MIC cell; for MIC: second figure of MFC/MIC cell. The format is cell-based, Malassezia furfur. As to the method: (§1) The MIC of first extract and individual fractions (1-7) which were collected from RP-HPLC was calculated by ‘broth microdilution technique’ in 96-well microtiter plates. […] As a positive control, commercially used antifungal drug ketoconazole was used in concentrations ranging from 32 μg/mL to 0.0156 μg/mL. The plates were incubated at 30° C. for Malassezia spp and the results were recorded after 48 h and 7 days. The minimum inhibitory concentration (MIC) was measured as the lowest sample concentration that could inhibit the fungal growth.
Background: Broth dilution looks for growth in wells or tubes with falling amounts of substance.

Experiment [2] has as its system Malassezia indicator strains. The experiment is described as follows: Agar plate diffusion assay, antifungal activity in words. The class given is cell-based. To be noted: against Malassezia, compared among fractions 1-7. As to the method:
(§2) said first extract is analyzed for antifungal activity using agar plate diffusion assay and by time kill procedure. […] For time-kill procedure, the inoculum suspension of indicator strains of Malassezia (10^5 CFU/mL) is exposed to different concentration of First extract. Then, 50-μL aliquots is withdrawn at fixed intervals and evaluated. […] Said first extract is used further for down streaming to separate the antifungal peptides.
About 15 ml fraction which was obtained after anion exchange chromatography was lyophilized to get about 1500 mg of dry powder. About 50 mg was mixed with 1 ml sodium phosphate buffer and then said solution was injected to Scalar C18 column. The separation of the antifungal peptides was carried out by binary solvent gradient elution system comprising about 0.1% trifluoroacetic acid in HPLC grade deionized water (eluent A) and about 0.1% trifluoroacetic acid in acetonitrile (eluent B). The gradient program was as follows between: 0 to 20 min, 0-40% B, 20-30 min, 40 to 80% B, 30 to 35 min, 80 to 100% B, 35 to 45 min, 100 to 0% B at a flow rate of about 1.0 mL/min at 30° C., Six separate fractions were collected at retention times of 24.5, 28.2, 30.1, 32.2, 34.5 and 37.1 minutes and seventh fraction was collected from 38 to 43 minutes according to the absorption profile at 220 nm and 280 nm using the fraction collector and further freeze-dried. […]

The subject of experiment [3] is M. furfur. The experiment is described as follows: Agar plate diffusion assay, zone of inhibition. The format is cell-based, Malassezia furfur. On the procedure: as §2
(§3) About 15 ml fraction which was obtained after anion exchange chromatography was lyophilized to get about 1500 mg of dry powder. About 50 mg was mixed with 1 ml sodium phosphate buffer and then said solution was injected to Scalar C18 column. The separation of the antifungal peptides was carried out by binary solvent gradient elution system comprising about 0.1% trifluoroacetic acid in HPLC grade deionized water (eluent A) and about 0.1% trifluoroacetic acid in acetonitrile (eluent B). The gradient program was as follows between: 0 to 20 min, 0-40% B, 20-30 min, 40 to 80% B, 30 to 35 min, 80 to 100% B, 35 to 45 min, 100 to 0% B at a flow rate of about 1.0 mL/min at 30° C., Six separate fractions were collected at retention times of 24.5, 28.2, 30.1, 32.2, 34.5 and 37.1 minutes and seventh fraction was collected from 38 to 43 minutes according to the absorption profile at 220 nm and 280 nm using the fraction collector and further freeze-dried. Individual fractions were labelled as 1, 2, 3, 4, 5, 6 and 7 in the order if increasing retention times, dissolved in sterile distilled water and then tested for their individual antifungal activity. […] And fraction 5 was not reported against M. furfur, M. globose species. For experiment the 0.1 M sodium phosphate buffer was used as a negative control and Ketoconazol was used as a positive control

The subject of experiment [4] is M. globosa. The experiment is described as follows: Agar plate diffusion assay, zone of inhibition. The class given is cell-based, Malassezia globosa. As to the method:
as §2, §3

Experiment [5] relates to M. globosa. The experiment is described as follows: MIC and MFC by broth microdilution technique. The format is cell-based, Malassezia globosa. Particulars: for MFC: first figure of MFC/MIC cell; for MIC: second figure of MFC/MIC cell. As to the method:
as §1

In the case of `C[C@@H]1CCC/C=C/C=C/[C@H](O)C[C@@H](O)C/C=C\C=C\[C@@H](O)C/C=C/C=C\C(=O)O1` [Fraction 5, Macrolactin A], the MFC with M. furfur [1] (M. furfur) was 330 µg/mL (≈ 820 µM); in the experiment with M. furfur [1] (first M. furfur column), 313 µg/mL (≈ 778 µM); with M. globosa [5] it was 275 µg/mL (≈ 683 µM). In addition, the MIC is 165 µg/mL (≈ 410 µM) in the experiment with M. furfur [1] (M. furfur), 156 µg/mL (≈ 388 µM) in the experiment with M. furfur [1] (first M. furfur column) and 138 µg/mL (≈ 343 µM) with M. globosa [5]. The “antifungal activity of individual fractions in words” value in experiment [2] is recorded as “strongest anti-fungal activity”. For the same molecule, the Zone of inhibition is 2 ± 0.77 mm in the experiment on M. furfur [3] and 2 ± 0.69 mm in the experiment on M. globosa [4].

Turning to `CC1CCCC=CC=CC(O)CC(O)CC=CC=CC(OC(=O)CCC(=O)O)CC=CC=CC(=O)O1` (stereo not drawn) [Fraction 6, 7-O-succinylmacrolactin A], the MFC in the experiment on M. furfur [1] (M. furfur), against M. furfur [1] (first M. furfur column) and in the experiment with M. globosa [5] was 96 µg/mL (≈ 191 µM) each time. For the same molecule, the minimum inhibitory concentration (MIC) in the experiment with M. furfur [1] (M. furfur), against M. furfur [1] (first M. furfur column) and in the experiment on M. globosa [5] was 48 µg/mL (≈ 95.5 µM) throughout. Moreover, the “antifungal activity of individual fractions in words” value in experiment [2] was “strongest anti-fungal activity; also recorded: strongest antifungal activity”. Further, the Zone of inhibition came out at 6 ± 0.7 mm in the experiment on M. furfur [3] and 7 ± 0.65 mm in the experiment with M. globosa [4].

On to `CC(=O)N1CCN(c2ccc(OCC3COC(Cn4ccnc4)(c4ccc(Cl)cc4Cl)O3)cc2)CC1` (stereo not drawn) [Ketoconazole, reference compound], for which the MFC came out at 0.1 µg/mL (≈ 0.188 µM) with M. furfur [1] (M. furfur); 0.1 µg/mL (≈ 0.188 µM) in the experiment with M. furfur [1] (Malassezia furfur, first M. furfur column, read-out: MFC); 0.08 µg/mL (≈ 0.151 µM) with M. globosa [5] (Malassezia globosa, read-out: MFC). The minimum inhibitory concentration (MIC) in the experiment on M. furfur [1] (M. furfur) was 0.03 µg/mL (≈ 0.0565 µM); with M. furfur [1] (Malassezia furfur, first M. furfur column, read-out: MIC), 0.03 µg/mL (≈ 0.0565 µM); with M. globosa [5] (Malassezia globosa, read-out: MIC), 0.03 µg/mL (≈ 0.0565 µM). Further, the Zone of inhibition with M. furfur [3] worked out at 12 ± 0.65 mm; in the experiment with M. globosa [4], 11 ± 0.64 mm.

Turning to C14 Bacillomycin D [Fraction 2], the MFC with M. furfur [1] (M. furfur), in the experiment on M. furfur [1] (first M. furfur column) and against M. globosa [5] was more than 228 µg/mL in each case. Moreover, the minimal inhibitory concentration (MIC) against M. furfur [1] (M. furfur), with M. furfur [1] (first M. furfur column) and with M. globosa [5] was more than 228 µg/mL each time. In addition, the Zone of inhibition with M. furfur [3] was determined as 2 ± 0.45 mm; with M. globosa [4], 2 ± 0.42 mm.

For C15 Bacillomycin D [Fraction 3], the MFC in the experiment with M. furfur [1] (M. furfur), in the experiment with M. furfur [1] (first M. furfur column) and with M. globosa [5] was more than 228 µg/mL in each case. The minimal inhibitory concentration (MIC) against M. furfur [1] (M. furfur), in the experiment on M. furfur [1] (first M. furfur column) and against M. globosa [5] was more than 228 µg/mL each time. The Zone of inhibition is 3 ± 0.26 mm in the experiment on M. furfur [3] and 2 ± 0.25 mm in the experiment on M. globosa [4].

As to C16 Bacillomycin D [Fraction 4], the MFC against M. furfur [1] (M. furfur), against M. furfur [1] (first M. furfur column) and in the experiment with M. globosa [5] was more than 228 µg/mL throughout. In addition, the MIC in the experiment on M. furfur [1] (M. furfur), against M. furfur [1] (first M. furfur column) and against M. globosa [5] was more than 228 µg/mL in each case.

As usually defined, the MIC is the lowest concentration found to suppress growth.
